Laboratory results from ChEMBL document CHEMBL4613217, “Synthesis, anti-plasmodial and cytotoxic evaluation of 1H-1,2,3-triazole/acyl hydrazide integrated tetrahydro-β-carboline-4-aminoquinoline conjugates” (Bioorg Med Chem Lett, 2020).

What was measured:
[1] = tested on: Plasmodium falciparum; experiment: Antiplasmodial activity against chloroquine-resistant Plasmodium falciparum W2; type: functional, organism-based
[2] = tested on: Vero; experiment: Cytotoxicity against African green monkey Vero cells assessed as reduction in cell viability; type: cell-based; details: Chlorocebus sabaeus
[3] = Selectivity Index, ratio of IC50 for African green monkey Vero cells to IC50 for chloroquine-resistant Plasmodium falciparum W2; type: toxicity; details: read-out: Ratio IC50

SMILES	IC50 [1]	IC50 [2]	selectivity ratio [3]
C[C@@H]1NC(C(=O)NNC(=O)CCNc2ccnc3cc(Cl)ccc23)Cc2c1[nH]c1ccccc21 (some centres not stated)	2 µM		
O=C(CNc1ccnc2cc(Cl)ccc12)NNC(=O)C1Cc2c([nH]c3ccccc23)CN1 (configuration not stated)	4.4 µM		
CCOC(=O)C1Cc2c([nH]c3ccccc23)CN1Cc1cn(-c2ccnc3cc(Cl)ccc23)nn1 (configuration not stated)	9.28 µM		
O=C(O)c1ccc(Nc2ccnc3cc(Cl)ccc23)cc1	8.6 µM		
CCOC(=O)C1Cc2c([nH]c3ccccc23)[C@@H](C)N1Cc1cn(-c2ccnc3cc(Cl)ccc23)nn1 (some centres not stated)	4.02 µM		
C[C@H]1NC(C(=O)NNC(=O)c2ccc(Nc3ccnc4cc(Cl)ccc34)cc2)Cc2c1[nH]c1ccccc21 (some centres not stated)	1.21 µM	103 µM	84.9
O=C(CCCNc1ccnc2cc(Cl)ccc12)NNC(=O)C1Cc2c([nH]c3ccccc23)CN1 (configuration not stated)	3.1 µM		
C[C@@H]1NC(C(=O)NNC(=O)CNc2ccnc3cc(Cl)ccc23)Cc2c1[nH]c1ccccc21 (some centres not stated)	5 µM		
C[C@@H]1NC(C(=O)NNC(=O)CCCCCNc2ccnc3cc(Cl)ccc23)Cc2c1[nH]c1ccccc21 (some centres not stated)	1.8 µM		
CCOC(=O)C1Cc2c([nH]c3ccccc23)CN1Cc1cn(CCNc2ccnc3cc(Cl)ccc23)nn1 (configuration not stated)	0.86 µM	268 µM	312
CCOC(=O)C1Cc2c([nH]c3ccccc23)CN1Cc1cn(CCCNc2ccnc3cc(Cl)ccc23)nn1 (configuration not stated)	0.49 µM	246 µM	496
C#CCN1Cc2[nH]c3ccccc3c2CC1C(=O)OCC (configuration not stated)	4.3 µM		
C[C@@H]1NC(C(=O)NNC(=O)CCCNc2ccnc3cc(Cl)ccc23)Cc2c1[nH]c1ccccc21 (some centres not stated)	3.4 µM		
CCOC(=O)C1Cc2c([nH]c3ccccc23)[C@@H](C)N1Cc1cn(CCNc2ccnc3cc(Cl)ccc23)nn1 (some centres not stated)	0.93 µM		
CCOC(=O)C1Cc2c([nH]c3ccccc23)[C@@H](C)N1Cc1cn(CCCNc2ccnc3cc(Cl)ccc23)nn1 (some centres not stated)	1.37 µM		
C#CCN1C(C(=O)OCC)Cc2c([nH]c3ccccc23)[C@H]1C (some centres not stated)	9 µM		
O=C(CCNc1ccnc2cc(Cl)ccc12)NNC(=O)C1Cc2c([nH]c3ccccc23)CN1 (configuration not stated)	3.1 µM		
O=C(NNC(=O)C1Cc2c([nH]c3ccccc23)CN1)c1ccc(Nc2ccnc3cc(Cl)ccc23)cc1 (configuration not stated)	0.61 µM	95.1 µM	156
O=C(CCCCCNc1ccnc2cc(Cl)ccc12)NNC(=O)C1Cc2c([nH]c3ccccc23)CN1 (configuration not stated)	2.2 µM		
